# Reference: US20210387978A1, “CYCLOBUTYL DIHYDROQUINOLINE SULFONAMIDE COMPOUNDS” (AMGEN INC., priority 2020, published 2021)
# Target: T1, Human Nav1.7 (Homo sapiens, UniProt Q15858)
# T1 construct: expressed in transfected cells; host or cells: Spiking HEK cells (without Kir2.1 transfection)
# Test: IonWorks Barracuda (IWB) automated patch clamp assay
# Format: cell-based
# Conditions: human Nav1.7 currents, HEK cells, population patch-clamp, state- and use-dependent voltage protocol; read-out: hNaV1.7 IWB-U IC50
# Method: Ionaworks Barracuda […] Automated Patch Clamp Assay (Same Protocol for Both Human and Mouse)
# Human Nav1.7 currents were recorded in population patch-clamp mode with the IWB automated electrophysiology system (Molecular Devices, LLC, Sunnyvale, Calif.). Spiking HEK cells (without Kir2.1 transfection) were cultured and prepared for recordings as previously described for IonWorks Quattro testing^1. The external solution consisted of the following (in mM): NaCl 140, KCl 5, CaCl2 2, MgCl2 1, HEPES 10, and glucose 11, pH 7.4, with N-methyl-D-glucamine at 320 mOsmol. […] From a holding potential of −110 mV, currents were elicited by a train of 26 depolarizations of 150 ms duration to −20 mV at a frequency of 5 Hz. Cells were then clamped to −20 mV for a period of 4 minutes in the presence of a single concentration of test compound. Following this compound incubation period, cells were clamped to −110 mV for three seconds to recover unbound channels and put through the same 26 pulse voltage protocol as above. Peak inward current during the 26th pulse to −20 mV in the presence of compound was divided by the peak inward current evoked by the 26th pulse to −20 mV in the absence of compound to determine percent inhibition. Concentration-response curves of percent inhibition as a function of concentration were generated to calculate IC50 values as described in Kornecook, T. J.; Yin, R.; Altmann, S.; et al. Pharmacologic Characterization of AMG8379, a Potent and Selective Small Molecule Sulfonamide Antagonist of the Voltage-Gated Sodium Channel NaV1. 7.
# The potency of the compounds of the present invention were evaluated on human Nav1.7 channels using the above described IonWorks Barracuda automated electrophysiology platform that evaluates the ability of compounds to block sodium conductance through Nav1.7 channels. A voltage-protocol that prosecutes both state-dependent as well as use-dependent inhibition was used as these modes of action are thought to be more relevant for the native state of Nav1.7 channels in pain sensing neurons in vivo.
# T1 sequence (Q15858 whole entry): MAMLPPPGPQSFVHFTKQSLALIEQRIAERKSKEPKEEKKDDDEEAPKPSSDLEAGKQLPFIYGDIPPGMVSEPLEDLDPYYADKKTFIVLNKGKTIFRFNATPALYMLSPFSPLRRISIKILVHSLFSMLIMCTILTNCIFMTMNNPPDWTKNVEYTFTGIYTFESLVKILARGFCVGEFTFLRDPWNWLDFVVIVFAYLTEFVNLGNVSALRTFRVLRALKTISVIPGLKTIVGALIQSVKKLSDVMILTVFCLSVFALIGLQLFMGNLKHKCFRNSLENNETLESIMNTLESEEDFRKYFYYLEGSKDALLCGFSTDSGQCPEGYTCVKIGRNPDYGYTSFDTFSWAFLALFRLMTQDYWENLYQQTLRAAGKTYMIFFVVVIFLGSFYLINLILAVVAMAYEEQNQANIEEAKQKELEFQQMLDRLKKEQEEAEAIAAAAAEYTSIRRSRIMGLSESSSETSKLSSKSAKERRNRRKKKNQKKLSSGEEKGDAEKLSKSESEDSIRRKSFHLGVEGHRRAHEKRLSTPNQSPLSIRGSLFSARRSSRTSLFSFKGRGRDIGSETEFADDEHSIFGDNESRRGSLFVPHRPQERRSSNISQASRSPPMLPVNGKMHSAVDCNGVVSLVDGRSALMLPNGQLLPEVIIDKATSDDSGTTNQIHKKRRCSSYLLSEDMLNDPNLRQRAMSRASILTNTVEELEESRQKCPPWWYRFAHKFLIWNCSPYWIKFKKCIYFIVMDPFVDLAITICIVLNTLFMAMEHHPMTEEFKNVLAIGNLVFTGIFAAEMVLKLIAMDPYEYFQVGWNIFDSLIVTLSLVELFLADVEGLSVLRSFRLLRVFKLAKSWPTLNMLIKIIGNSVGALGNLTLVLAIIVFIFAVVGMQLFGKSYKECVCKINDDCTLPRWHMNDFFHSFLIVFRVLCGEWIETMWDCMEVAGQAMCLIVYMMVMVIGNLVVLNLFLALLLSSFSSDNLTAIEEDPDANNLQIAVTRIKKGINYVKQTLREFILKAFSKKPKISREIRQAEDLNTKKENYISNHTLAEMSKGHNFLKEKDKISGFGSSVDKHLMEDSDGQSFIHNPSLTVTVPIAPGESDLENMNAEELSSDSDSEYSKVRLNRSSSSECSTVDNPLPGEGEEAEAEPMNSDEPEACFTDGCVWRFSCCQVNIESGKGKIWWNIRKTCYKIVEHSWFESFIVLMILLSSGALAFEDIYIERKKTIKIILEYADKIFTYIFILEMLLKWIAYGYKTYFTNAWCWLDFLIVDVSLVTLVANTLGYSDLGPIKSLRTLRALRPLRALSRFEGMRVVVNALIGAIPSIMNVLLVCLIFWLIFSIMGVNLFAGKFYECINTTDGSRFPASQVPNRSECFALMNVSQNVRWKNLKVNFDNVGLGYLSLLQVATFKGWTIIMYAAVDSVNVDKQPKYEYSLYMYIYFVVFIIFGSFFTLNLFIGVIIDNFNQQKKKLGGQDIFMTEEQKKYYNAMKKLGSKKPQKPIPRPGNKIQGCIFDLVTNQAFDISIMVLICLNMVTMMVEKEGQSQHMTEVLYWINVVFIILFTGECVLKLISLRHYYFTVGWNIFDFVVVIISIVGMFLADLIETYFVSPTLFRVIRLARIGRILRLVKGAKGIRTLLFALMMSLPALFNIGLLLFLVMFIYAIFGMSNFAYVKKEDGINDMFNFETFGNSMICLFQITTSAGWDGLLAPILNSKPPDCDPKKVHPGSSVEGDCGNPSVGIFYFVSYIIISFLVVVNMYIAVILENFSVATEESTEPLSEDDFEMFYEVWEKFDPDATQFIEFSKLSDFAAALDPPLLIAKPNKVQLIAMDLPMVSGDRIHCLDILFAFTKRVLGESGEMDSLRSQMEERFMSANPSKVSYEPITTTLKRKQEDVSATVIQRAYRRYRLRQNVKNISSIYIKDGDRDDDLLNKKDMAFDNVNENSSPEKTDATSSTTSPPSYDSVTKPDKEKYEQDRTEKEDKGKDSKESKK
row,Compound,IC50 [nM]
1,"COc1cc(C23CC(C(F)(F)F)(C2)C3)c(F)cc1-n1c(=O)ccc2cc(S(=O)(=O)Nc3ccon3)ccc21 (atropisomer, axis not shown; (P)) [Example 42, (P)-1-(5-fluoro-2-methoxy-4-(3-(trifluoromethyl)bicyclo[1.1.1]pentan-1-yl)phenyl)-N-(isoxazol-3-yl)-2-oxo-1,2-dihydroquinoline-6-sulfonamide]",6
2,"COc1cc([C@H]2C[C@@](F)(C(F)(F)F)C2)c(F)cc1-n1c(=O)ccc2cc(S(=O)(=O)Nc3ccon3)ccc21 (atropisomer, axis not shown; (P)) [Example 8, trans-(P)-1-(5-fluoro-4-(3-fluoro-3-(trifluoromethyl)cyclobutyl)-2-methoxyphenyl)-N-(isoxazol-3-yl)-2-oxo-1,2-dihydroquinoline-6-sulfonamide]",5
3,"COc1cc(C2CCC2)c(Cl)cc1-n1c(=O)ccc2cc(S(=O)(=O)Nc3ncccn3)ccc21 (atropisomer, axis not shown; (P)) [Example 18, (P)-1-(5-chloro-4-cyclobutyl-2-methoxyphenyl)-2-oxo-N-(pyrimidin-2-yl)-1,2-dihydroquinoline-6-sulfonamide]",22
4,"COc1cc([C@H]2C[C@H](OC(F)(F)F)C2)c(F)cc1-n1c(=O)ccc2cc(S(=O)(=O)Nc3ccon3)ccc21 (single isomer, unassigned) [Example 45, trans-(P)-1-(5-fluoro-2-methoxy-4-(3-(trifluoromethoxy)cyclobutyl)phenyl)-N-(isoxazol-3-yl)-2-oxo-1,2-dihydroquinoline-6-sulfonamide]",8
5,"COc1cc(C2CCC2)ccc1-n1c(=O)ccc2cc(S(=O)(=O)Nc3ncco3)ccc21 (atropisomer, axis not shown; (P)) [Example 29, (P)-1-(4-cyclobutyl-2-methoxyphenyl)-N-(oxazol-2-yl)-2-oxo-1,2-dihydroquinoline-6-sulfonamide]",37
6,"COc1cc(C2CCC2)c(F)cc1-n1c(=O)ccc2cc(S(=O)(=O)Nc3ncccn3)ccc21 (atropisomer, axis not shown; (P)) [Example 28, (P)-1-(4-cyclobutyl-5-fluoro-2-methoxyphenyl)-2-oxo-N-(pyrimidin-2-yl)-1,2-dihydroquinoline-6-sulfonamide]",54
7,"COc1cc(C2CCC2)ccc1-n1c(=O)ccc2cc(S(=O)(=O)Nc3ccon3)ccc21 (atropisomer, axis not shown; (P)) [Example 25, (P)-1-(4-cyclobutyl-2-methoxyphenyl)-N-(isoxazol-3-yl)-2-oxo-1,2-dihydroquinoline-6-sulfonamide]",37
8,"COc1cc(C2CCC2)c(C)cc1-n1c(=O)ccc2cc(S(=O)(=O)Nc3ccon3)ccc21 (atropisomer, axis not shown; (P)) [Example 22, (P)-1-(4-cyclobutyl-2-methoxy-5-methylphenyl)-N-(isoxazol-3-yl)-2-oxo-1,2-dihydroquinoline-6-sulfonamide]",50
9,"COc1cc(C2CCC2)c(C)cc1-n1c(=O)ccc2cc(S(=O)(=O)Nc3ncccn3)ccc21 (atropisomer, axis not shown; (P)) [Example 27, (P)-1-(4-Cyclobutyl-2-Methoxy-5-Methylphenyl)-2-Oxo-N-(Pyrimidin-2-Yl)-1,2-Dihydro Quinoline-6-Sulfonamide]",104
10,"COc1cc(C2CC(F)(C(F)(F)F)C2)c(F)cc1-n1c(=O)ccc2cc(S(=O)(=O)Nc3ccon3)ccc21 (atropisomer, axis not shown; (P)) [Example 5, (P)-1-(5-fluoro-4-(3-fluoro-3-(trifluoromethyl)cyclobutyl)-2-methoxyphenyl)-N-(isoxazol-3-yl)-2-oxo-1,2-dihydroquinoline-6-sulfonamide]",2
11,"COc1cc([C@H]2C[C@H](C(F)(F)F)C2)c(F)cc1-n1c(=O)ccc2cc(S(=O)(=O)Nc3ncco3)ccc21 (atropisomer, axis not shown; (P)) [Example 43, Trans-(P)-1-(5-Fluoro-2-Methoxy-4-(3-(Trifluoromethyl)Cyclobutyl)Phenyl)-N-(Oxazol-2-Yl)-2-Oxo-1,2-Dihydroquinoline-6-Sulfonamide]",7
12,"COc1cc(C23CC(C(F)(F)F)(C2)C3)c(F)cc1-n1c(=O)ccc2cc(S(=O)(=O)Nc3ncccn3)ccc21 (atropisomer, axis not shown; (P)) [Example 47, (P)-1-(5-fluoro-2-methoxy-4-(3-(trifluoromethyl)bicyclo[1.1.1]pentan-1-yl)phenyl)-2-oxo-N-(pyrimidin-2-yl)-1,2-dihydroquinoline-6-sulfonamide]",8
13,"COc1cc([C@H]2C[C@H](C(F)(F)F)C2)c(Cl)cc1-n1c(=O)ccc2cc(S(=O)(=O)Nc3cccnn3)ccc21 (atropisomer, axis not shown; (P)) [Example 19, trans-(P)-1-(5-chloro-2-methoxy-4-(3-(trifluoromethyl)cyclobutyl)phenyl)-2-oxo-N-(pyridazin-3-yl)-1,2-dihydroquinoline-6-sulfonamide]",15
14,"COc1cc(C2CC(F)(F)C2)c(F)cc1-n1c(=O)ccc2cc(S(=O)(=O)Nc3ccon3)c(F)cc21 (atropisomer, axis not shown; (P)) [Example 41, (P)-1-(4-(3,3-difluorocyclobutyl)-5-fluoro-2-methoxyphenyl)-7-fluoro-N-(isoxazol-3-yl)-2-oxo-1,2-dihydroquinoline-6-sulfonamide]",11
15,"COc1cc(C2CC(F)(F)C2)c(F)cc1-n1c(=O)ccc2cc(S(=O)(=O)Nc3ccon3)ccc21 (atropisomer, axis not shown; (P)) [Example 4, (P)-1-(4-(3,3-difluorocyclobutyl)-5-fluoro-2-methoxyphenyl)-N-(isoxazol-3-yl)-2-oxo-1,2-dihydroquinoline-6-sulfonamide]",15
16,"COc1cc([C@H]2C[C@H](C(F)(F)F)C2)ccc1-n1c(=O)ccc2cc(S(=O)(=O)Nc3ncccn3)ccc21 (atropisomer, axis not shown; (P)) [Example 36, trans-(P)-1-(2-methoxy-4-((1R,3R)-3-(trifluoromethyl)cyclobutyl)phenyl)-2-oxo-N-(pyrimidin-2-yl)-1,2-dihydroquinoline-6-sulfonamide]",14
17,"COc1cc(C2CCC2)c(F)cc1-n1c(=O)ccc2cc(S(=O)(=O)Nc3cccnn3)ccc21 (atropisomer, axis not shown; (P)) [Example 23, (P)-1-(4-cyclobutyl-5-fluoro-2-methoxyphenyl)-2-oxo-N-(pyridazin-3-yl)-1,2-dihydroquinoline-6-sulfonamide]",102
18,"COc1cc([C@H]2C[C@H](C(F)(F)F)C2)c(C)cc1-n1c(=O)ccc2cc(S(=O)(=O)Nc3ccon3)ccc21 (atropisomer, axis not shown; (P)) [Example 20, trans-(P)—N-(isoxazol-3-yl)-1-(2-methoxy-5-methyl-4-(3-(trifluoromethyl)cyclobutyl)phenyl)-2-oxo-1,2-dihydroquinoline-6-sulfonamide]",12
19,"COc1cc(C2CCC2)c(C)cc1-n1c(=O)ccc2cc(S(=O)(=O)Nc3ncco3)ccc21 (atropisomer, axis not shown; (P)) [Example 34, (P)-1-(4-cyclobutyl-2-methoxy-5-methylphenyl)-N-(oxazol-2-yl)-2-oxo-1,2-dihydroquinoline-6-sulfonamide]",28
20,"COc1cc([C@H]2C[C@H](C(F)(F)F)C2)c(Cl)cc1-n1c(=O)ccc2cc(S(=O)(=O)Nc3ncccn3)ccc21 (atropisomer, axis not shown; (P)) [Example 17, trans-(P)-1-(5-chloro-2-methoxy-4-(3-(trifluoromethyl)cyclobutyl)phenyl)-2-oxo-N-(pyrimidin-2-yl)-1,2-dihydroquinoline-6-sulfonamide]",15
21,"COc1cc(C2CCC2)ccc1-n1c(=O)ccc2cc(S(=O)(=O)Nc3ncccn3)ccc21 (atropisomer, axis not shown; (P)) [Example 26, (P)-1-(4-cyclobutyl-2-methoxyphenyl)-2-oxo-N-(pyrimidin-2-yl)-1,2-dihydroquinoline-6-sulfonamide]",80
22,"COc1cc([C@H]2C[C@H](C(F)(F)F)C2)c(Cl)cc1-n1c(=O)ccc2cc(S(=O)(=O)Nc3ncco3)ccc21 (atropisomer, axis not shown; (P)) [Example 49, trans (P)-1-(5-chloro-2-methoxy-4-((1R,3R)-3-(trifluoromethyl)cyclobutyl)phenyl)-N-(oxazol-2-yl)-2-oxo-1,2-dihydroquinoline-6-sulfonamide]",10
